Literature values in patent US20190274964A1, “NEW IMPROVED COMPOSITION OF RACECADOTRIL” (JOHNSON & JOHNSON CONSUMER INC., priority 2016, published 2019).

Tested on: castor-oil induced diarrhea
Conditions: rats

| Compound | Inhibition of castor-oil induced diarrhea | Cumulative stool weight following challenge with castor oil (pre-treatment p.o.) | Time to onset (pre-treatment p.o., dose-response relationship could not be established) | Protection against diarrhea as measured by cumulative stool weight and time to onset (intravenous administration, most prominent during first two hours following challenge) |
| --- | --- | --- | --- | --- |
| CC(=O)SCC(Cc1ccccc1)C(=O)NCC(=O)OCc1ccccc1 (centres unmarked) [Racecadotril, benzyl N-[3-(acetylthio)-2 benzylpropanoyl] glycinate] | inhibit castor-oil induced diarrhea | reduction in cumulative stool weight | significantly delayed |  |
| O=C(O)CNC(=O)C(CS)Cc1ccccc1 (centres unmarked) [thiorphan] | inhibit castor-oil induced diarrhea |  |  | dose-dependent protection against diarrhea |
